Assay results: patent US8802849B2, “Tricyclic benzo[4,5]thieno-[2,3-d]pyrimidine-4-yl-amin derivatives, their salts, process for producing the compounds and their pharmaceutical use” (Vichem Chemie Kutató Kft., priority 2008, dated 2014)

Columns and labels:
IKK-beta = target: T1, IKK-beta (Homo sapiens, UniProt O14920); experiment: IKK-beta kinase assay; type: biochemical; conditions: 10 μM compound; read-out: IKK-beta percent of inhibition
T1 sequence (O14920 1-756): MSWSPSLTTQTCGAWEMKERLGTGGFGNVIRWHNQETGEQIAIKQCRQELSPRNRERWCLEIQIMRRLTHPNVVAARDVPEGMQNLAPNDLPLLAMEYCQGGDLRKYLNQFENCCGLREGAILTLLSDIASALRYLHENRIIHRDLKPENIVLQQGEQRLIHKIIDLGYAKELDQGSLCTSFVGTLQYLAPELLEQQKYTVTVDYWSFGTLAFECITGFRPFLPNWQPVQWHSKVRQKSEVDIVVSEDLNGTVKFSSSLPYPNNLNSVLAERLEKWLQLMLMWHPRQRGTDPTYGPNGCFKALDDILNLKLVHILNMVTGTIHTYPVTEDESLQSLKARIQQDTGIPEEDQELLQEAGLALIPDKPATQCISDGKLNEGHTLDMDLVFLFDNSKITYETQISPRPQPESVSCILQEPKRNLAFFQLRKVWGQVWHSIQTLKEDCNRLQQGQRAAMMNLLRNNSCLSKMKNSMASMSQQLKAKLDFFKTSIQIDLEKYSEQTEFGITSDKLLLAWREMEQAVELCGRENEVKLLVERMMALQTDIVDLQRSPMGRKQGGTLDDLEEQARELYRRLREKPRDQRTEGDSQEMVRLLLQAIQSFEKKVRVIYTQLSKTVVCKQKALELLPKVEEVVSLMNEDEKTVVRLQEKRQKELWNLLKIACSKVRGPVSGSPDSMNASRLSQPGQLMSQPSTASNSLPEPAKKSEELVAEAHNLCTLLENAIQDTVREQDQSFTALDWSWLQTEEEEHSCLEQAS
Protocol: (§1) General description of the kinase assays: the kinase activity was assayed in 96-well microtiter plates at a final compound concentration of 10 μM in a total volume of 50 μl. Compounds were dissolved in 100% DMSO to prepare a 10 mM stock solution and than diluted with buffer to reach a 10 μM (or the required) final concentration. The kinase concentration was used to yield 10% ATP turn over. The ATP concentration was used at the KmATP and 12.5 μCi/ml adenosine 5′[γ-33P]triphosphate. The substrate concentration was used at 5 fold excess over the Km for the substrate. The reaction was incubated for 1 hour at room temperature and stopped by addition of 10 μl 50 mM EDTA. The assay was transferred to a 96 well MAPH filter plate (Millipore). The radioactivity was counted on a Microbeta microplate counter.

Kit = Kit (Homo sapiens, UniProt P10721); experiment: Kit kinase assay; type: biochemical; conditions: 10 μM compound; read-out: Kit percent of inhibition
Protocol: as §1

SRPK1 = SRPK1 (Homo sapiens, UniProt Q96SB4); experiment: SRPK1 kinase assay; type: biochemical; conditions: 10 μM compound; read-out: SRPK1 percent of inhibition
Protocol: as §1

MAPK-ERK1 = MAPK-ERK1 (Homo sapiens, UniProt P27361); experiment: MAPK-ERK1 kinase assay; type: biochemical; conditions: 10 μM compound; read-out: MAPK-ERK1 percent of inhibition
Chain of MAPK-ERK1 (P27361 whole entry): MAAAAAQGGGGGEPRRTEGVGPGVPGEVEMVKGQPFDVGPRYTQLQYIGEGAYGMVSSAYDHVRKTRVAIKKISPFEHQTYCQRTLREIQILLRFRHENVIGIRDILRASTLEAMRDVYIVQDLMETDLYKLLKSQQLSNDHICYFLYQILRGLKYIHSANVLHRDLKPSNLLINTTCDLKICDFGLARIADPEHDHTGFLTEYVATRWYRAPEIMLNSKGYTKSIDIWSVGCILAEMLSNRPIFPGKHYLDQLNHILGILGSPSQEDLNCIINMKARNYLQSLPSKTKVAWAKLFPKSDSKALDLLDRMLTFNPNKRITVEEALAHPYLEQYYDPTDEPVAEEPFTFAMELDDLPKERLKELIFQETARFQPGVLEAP
Protocol: as §1

GSK-3beta = GSK-3beta (Homo sapiens, UniProt P49841); experiment: GSK-3beta kinase assay; type: biochemical; conditions: 10 μM compound; read-out: GSK-3beta percent of inhibition
Chain of GSK-3beta (P49841 whole entry, species assumed): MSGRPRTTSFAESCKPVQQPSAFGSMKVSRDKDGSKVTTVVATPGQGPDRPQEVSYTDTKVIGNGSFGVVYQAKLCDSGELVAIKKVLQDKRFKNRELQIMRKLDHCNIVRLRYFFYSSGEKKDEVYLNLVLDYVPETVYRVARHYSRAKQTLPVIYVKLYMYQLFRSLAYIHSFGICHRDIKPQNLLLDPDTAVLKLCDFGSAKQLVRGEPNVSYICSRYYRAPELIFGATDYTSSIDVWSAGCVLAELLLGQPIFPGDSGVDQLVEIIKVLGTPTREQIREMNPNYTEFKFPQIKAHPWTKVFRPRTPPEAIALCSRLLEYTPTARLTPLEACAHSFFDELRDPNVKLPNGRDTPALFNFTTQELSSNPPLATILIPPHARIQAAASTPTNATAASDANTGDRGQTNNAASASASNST
Protocol: as §1

AKT1/PKBa = AKT1/PKBa (Homo sapiens, UniProt P31749); experiment: AKT1/PKBa kinase assay; type: biochemical; conditions: 10 μM compound; read-out: AKT1/PKBa percent of inhibition
Chain of AKT1/PKBa (P31749 whole entry): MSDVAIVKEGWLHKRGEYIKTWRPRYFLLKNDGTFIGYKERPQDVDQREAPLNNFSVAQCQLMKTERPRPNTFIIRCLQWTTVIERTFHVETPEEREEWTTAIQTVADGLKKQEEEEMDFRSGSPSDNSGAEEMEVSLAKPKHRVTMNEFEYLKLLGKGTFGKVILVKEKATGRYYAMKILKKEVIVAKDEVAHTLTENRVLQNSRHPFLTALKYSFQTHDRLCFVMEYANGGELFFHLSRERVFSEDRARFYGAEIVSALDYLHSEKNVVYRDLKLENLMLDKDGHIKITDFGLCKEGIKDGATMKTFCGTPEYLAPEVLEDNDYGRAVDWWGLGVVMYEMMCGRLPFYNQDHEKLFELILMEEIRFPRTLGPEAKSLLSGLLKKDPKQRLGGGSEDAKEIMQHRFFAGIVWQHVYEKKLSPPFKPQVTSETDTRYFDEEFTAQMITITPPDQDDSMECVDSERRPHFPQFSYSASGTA
Protocol: as §1

EGFR = EGFR (Homo sapiens, UniProt P00533); experiment: EGFR kinase assay (33P-ATP filter plate); type: biochemical; conditions: for inhibition at 10 µM: 10 μM compound, read-out: EGFR percent of inhibition; for IC50: EGFR-PTK assay
Protocol: as §1

P70S6K = P70S6K (Homo sapiens, UniProt P23443); experiment: P70S6K kinase assay; type: biochemical; conditions: 10 μM compound; read-out: P70S6K percent of inhibition
Protocol: as §1

cMet = cMet (Homo sapiens, UniProt P08581); experiment: cMet kinase assay; type: biochemical; conditions: 10 μM compound; read-out: cMet percent of inhibition
Protocol: as §1

P56Lck = P56Lck (Homo sapiens, UniProt P06239); experiment: P56Lck kinase assay; type: biochemical; conditions: 10 μM compound; read-out: P56Lck percent of inhibition
Protocol: as §1

c-Src = c-Src (Homo sapiens, UniProt P12931); experiment: c-Src kinase assay; type: biochemical; conditions: 10 μM compound; read-out: c-Src percent of inhibition
Protocol: as §1

CK1-alpha = CK1-alpha (Homo sapiens, UniProt P48729); experiment: CK1-alpha kinase assay; type: biochemical; conditions: 10 μM compound; read-out: CK1-alpha percent of inhibition
Protocol: as §1

PDGFR-beta = PDGFR-beta (Homo sapiens, UniProt P09619); experiment: PDGFR-beta kinase assay; type: biochemical; conditions: 10 μM compound; read-out: PDGFR-beta percent of inhibition
Protocol: as §1

InsR = InsR (Homo sapiens, UniProt P06213); experiment: InsR kinase assay; type: biochemical; conditions: 10 μM compound; read-out: InsR percent of inhibition
Chain of InsR (P06213 28-1382, species assumed): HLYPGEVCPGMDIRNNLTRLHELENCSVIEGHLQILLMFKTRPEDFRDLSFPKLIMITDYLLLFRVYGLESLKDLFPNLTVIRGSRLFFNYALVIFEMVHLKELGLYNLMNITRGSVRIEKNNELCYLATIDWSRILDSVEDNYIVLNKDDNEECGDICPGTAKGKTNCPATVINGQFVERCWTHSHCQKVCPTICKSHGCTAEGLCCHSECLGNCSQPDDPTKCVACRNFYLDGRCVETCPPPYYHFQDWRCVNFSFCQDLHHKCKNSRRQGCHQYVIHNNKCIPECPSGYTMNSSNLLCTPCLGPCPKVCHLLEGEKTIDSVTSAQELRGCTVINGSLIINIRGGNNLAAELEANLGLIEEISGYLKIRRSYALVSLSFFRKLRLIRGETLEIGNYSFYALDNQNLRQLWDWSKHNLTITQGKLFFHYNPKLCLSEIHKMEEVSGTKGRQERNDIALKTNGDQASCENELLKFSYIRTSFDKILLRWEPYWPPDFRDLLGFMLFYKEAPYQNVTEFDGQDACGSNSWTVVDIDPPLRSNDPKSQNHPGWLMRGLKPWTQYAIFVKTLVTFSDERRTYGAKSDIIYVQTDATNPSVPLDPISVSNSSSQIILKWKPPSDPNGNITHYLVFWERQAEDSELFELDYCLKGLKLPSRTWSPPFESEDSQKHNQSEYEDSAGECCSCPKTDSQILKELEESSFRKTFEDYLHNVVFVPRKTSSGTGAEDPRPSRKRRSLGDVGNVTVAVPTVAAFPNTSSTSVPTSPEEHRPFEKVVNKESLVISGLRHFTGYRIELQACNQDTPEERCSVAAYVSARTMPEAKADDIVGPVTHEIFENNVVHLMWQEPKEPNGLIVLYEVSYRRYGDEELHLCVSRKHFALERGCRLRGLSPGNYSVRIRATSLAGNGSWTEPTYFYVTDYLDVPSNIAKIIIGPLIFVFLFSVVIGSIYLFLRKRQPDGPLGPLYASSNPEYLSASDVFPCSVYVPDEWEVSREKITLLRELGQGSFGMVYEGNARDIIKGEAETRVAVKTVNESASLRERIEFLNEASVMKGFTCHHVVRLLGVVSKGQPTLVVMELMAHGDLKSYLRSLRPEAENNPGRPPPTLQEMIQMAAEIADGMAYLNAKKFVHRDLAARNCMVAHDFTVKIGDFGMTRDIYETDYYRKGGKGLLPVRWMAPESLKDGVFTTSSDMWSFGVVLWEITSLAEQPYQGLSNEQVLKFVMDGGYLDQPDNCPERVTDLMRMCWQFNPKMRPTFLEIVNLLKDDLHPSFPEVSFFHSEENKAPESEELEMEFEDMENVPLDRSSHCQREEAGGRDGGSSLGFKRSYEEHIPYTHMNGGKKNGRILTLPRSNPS
Protocol: as §1

c-Raf = c-Raf (Homo sapiens, UniProt P04049); experiment: c-Raf kinase assay; type: biochemical; conditions: 10 μM compound; read-out: c-Raf percent of inhibition
Chain of c-Raf (P04049 whole entry, species assumed): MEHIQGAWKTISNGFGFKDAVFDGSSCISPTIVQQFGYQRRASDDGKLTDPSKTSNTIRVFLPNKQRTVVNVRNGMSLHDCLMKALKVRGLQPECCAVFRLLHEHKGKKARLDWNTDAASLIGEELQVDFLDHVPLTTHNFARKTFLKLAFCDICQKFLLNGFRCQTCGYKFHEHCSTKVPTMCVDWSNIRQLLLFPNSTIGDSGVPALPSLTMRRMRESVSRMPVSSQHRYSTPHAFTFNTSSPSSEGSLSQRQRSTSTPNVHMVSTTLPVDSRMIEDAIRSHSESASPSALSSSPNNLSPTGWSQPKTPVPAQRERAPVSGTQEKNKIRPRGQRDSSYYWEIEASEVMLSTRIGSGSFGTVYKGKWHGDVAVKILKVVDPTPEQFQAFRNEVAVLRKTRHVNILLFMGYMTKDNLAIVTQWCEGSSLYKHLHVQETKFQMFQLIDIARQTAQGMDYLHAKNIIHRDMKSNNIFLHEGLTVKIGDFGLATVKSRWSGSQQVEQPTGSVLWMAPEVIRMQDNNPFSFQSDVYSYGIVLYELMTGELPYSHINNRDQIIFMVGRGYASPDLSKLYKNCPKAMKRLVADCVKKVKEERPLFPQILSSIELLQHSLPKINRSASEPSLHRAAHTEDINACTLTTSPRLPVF
Protocol: as §1

Abl = Abl (Homo sapiens, UniProt P00519); experiment: Abl kinase assay; type: biochemical; conditions: 10 μM compound; read-out: Abl percent of inhibition
Chain of Abl (P00519 whole entry, species assumed): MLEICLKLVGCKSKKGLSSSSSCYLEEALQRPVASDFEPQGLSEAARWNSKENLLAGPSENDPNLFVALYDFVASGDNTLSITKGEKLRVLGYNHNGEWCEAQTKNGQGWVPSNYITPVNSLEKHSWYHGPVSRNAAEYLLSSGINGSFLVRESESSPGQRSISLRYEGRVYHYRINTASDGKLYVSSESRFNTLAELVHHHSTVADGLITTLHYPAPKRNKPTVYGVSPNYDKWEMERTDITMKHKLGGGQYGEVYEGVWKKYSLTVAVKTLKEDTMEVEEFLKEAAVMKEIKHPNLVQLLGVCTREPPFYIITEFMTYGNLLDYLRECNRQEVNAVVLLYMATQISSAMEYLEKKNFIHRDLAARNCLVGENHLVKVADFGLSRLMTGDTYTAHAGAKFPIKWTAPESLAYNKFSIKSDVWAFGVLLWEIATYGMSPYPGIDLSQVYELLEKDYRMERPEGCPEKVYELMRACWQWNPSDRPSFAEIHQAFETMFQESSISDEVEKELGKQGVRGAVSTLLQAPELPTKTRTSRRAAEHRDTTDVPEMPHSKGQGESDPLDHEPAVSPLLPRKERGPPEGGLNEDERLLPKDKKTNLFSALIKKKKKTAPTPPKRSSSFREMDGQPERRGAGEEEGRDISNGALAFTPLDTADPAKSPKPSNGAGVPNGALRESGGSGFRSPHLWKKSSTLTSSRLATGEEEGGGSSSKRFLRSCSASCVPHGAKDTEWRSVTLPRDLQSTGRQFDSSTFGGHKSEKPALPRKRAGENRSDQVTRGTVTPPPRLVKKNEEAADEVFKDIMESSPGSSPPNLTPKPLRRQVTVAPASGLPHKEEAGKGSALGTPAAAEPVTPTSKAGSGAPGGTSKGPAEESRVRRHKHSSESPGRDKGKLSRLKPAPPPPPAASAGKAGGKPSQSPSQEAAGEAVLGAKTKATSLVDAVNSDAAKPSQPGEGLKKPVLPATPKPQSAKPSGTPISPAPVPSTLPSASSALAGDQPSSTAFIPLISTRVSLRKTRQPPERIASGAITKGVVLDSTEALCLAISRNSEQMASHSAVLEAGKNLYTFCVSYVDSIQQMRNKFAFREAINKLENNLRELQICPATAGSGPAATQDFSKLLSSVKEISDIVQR
Protocol: as §1

ROCK2 = ROCK2 (Homo sapiens, UniProt O75116); experiment: ROCK2 kinase assay; type: biochemical; conditions: 10 μM compound; read-out: ROCK2 percent of inhibition
Protocol: as §1

RSK1 = RSK1 (Homo sapiens, UniProt Q15418); experiment: RSK1 kinase assay; type: biochemical; conditions: 10 μM compound; read-out: RSK1 percent of inhibition
Protocol: as §1

CDK2/CycA = CDK2/CycA (Homo sapiens, UniProt P24941); experiment: CDK2/CycA kinase assay; type: biochemical; conditions: 10 μM compound; read-out: CDK2/CycA percent of inhibition
Protocol: as §1

Jnk1a1 = Jnk1a1 (Homo sapiens, UniProt P45983); experiment: Jnk1a1 kinase assay; type: biochemical; conditions: 10 μM compound; read-out: Jnk1a1 percent of inhibition
Chain of Jnk1a1 (P45983 1-384 isoform P45983-2): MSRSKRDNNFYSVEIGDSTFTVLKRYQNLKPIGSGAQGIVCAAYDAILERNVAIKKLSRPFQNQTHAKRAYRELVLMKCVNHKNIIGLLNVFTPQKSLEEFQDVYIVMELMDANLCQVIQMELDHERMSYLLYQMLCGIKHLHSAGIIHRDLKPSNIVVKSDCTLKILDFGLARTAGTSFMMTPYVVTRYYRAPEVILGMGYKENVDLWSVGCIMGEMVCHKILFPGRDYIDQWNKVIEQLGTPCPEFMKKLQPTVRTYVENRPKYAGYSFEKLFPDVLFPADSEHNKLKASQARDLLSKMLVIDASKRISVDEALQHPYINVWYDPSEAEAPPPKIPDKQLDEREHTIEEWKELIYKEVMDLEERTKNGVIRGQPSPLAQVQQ
Protocol: as §1

| inhibition at 10 µM (IKK-beta) [%] | inhibition at 10 µM (Kit) [%] | inhibition at 10 µM (SRPK1) [%] | inhibition at 10 µM (MAPK-ERK1) [%] | inhibition at 10 µM (GSK-3beta) [%] | melting point | inhibition at 10 µM (AKT1/PKBa) [%] | inhibition at 10 µM (EGFR) [%] | inhibition at 10 µM (P70S6K) [%] | inhibition at 10 µM (cMet) [%] | inhibition at 10 µM (P56Lck) [%] | inhibition at 10 µM (c-Src) [%] | inhibition at 10 µM (CK1-alpha) [%] | inhibition at 10 µM (PDGFR-beta) [%] | inhibition at 10 µM (InsR) [%] | inhibition at 10 µM (c-Raf) [%] | inhibition at 10 µM (Abl) [%] | inhibition at 10 µM (ROCK2) [%] | inhibition at 10 µM (RSK1) [%] | inhibition at 10 µM (CDK2/CycA) [%] | SMILES | also measured |
| --- | --- | --- | --- | --- | --- | --- | --- | --- | --- | --- | --- | --- | --- | --- | --- | --- | --- | --- | --- | --- | --- |
| 12 | 2 | 6 | 8 | -2 | 164.3 °C (dec.) | 1 | 98 | 2 | 2 | 9 | 24 | 5 | 0 | -7 | 14 | -7 | 7 | 6 | 16 | Nc1cccc(Nc2ncnc3sc4c(c23)CCCC4)c1 [Compound 4, N-(5,6,7,8-Tetrahydro-benzo[4,5]thieno[2,3-d]pyrimidin-4-yl)-benzene-1,3-diamine] | IC50 (EGFR): 16.8 nM; inhibition at 10 µM (Jnk1a1): 6% |
| 10 | -5 | 7 | -5 | -6 | 194.6 °C | -25 | 99 | 1 | -4 | -5 | 8 | 7 | -5 | -7 | 0 | -7 | -2 | 19 | 9 | N#Cc1cccc(Nc2ncnc3sc4c(c23)CCCC4)c1 [Compound 5, 3-(5,6,7,8-Tetrahydro-benzo[4,5]thieno[2,3-d]pyrimidin-4-ylamino)-benzonitrile] | inhibition at 10 µM (Jnk1a1): -3% |
| 9 | 10 | -3 | -9 | 2 | 191.2 °C | -11 | 100 | -17 | -7 | 30 | 25 | 5 | 15 | -16 | -20 | -9 | 3 | -15 | -1 | Clc1ccc(Nc2ncnc3sc4c(c23)CCCC4)cc1 [Compound 7, (4-Chloro-phenyl)-(5,6,7,8-tetrahydro-benzo[4,5]thieno[2,3-d]pyrimidin-4-yl)-amine] | IC50 (EGFR): 12.8 nM; inhibition at 10 µM (Jnk1a1): -7% |
| 16 | 20 | -4 | 12 | 8 | 203.1 °C | 4 | 96 | 7 | 9 | 2 | 16 | 4 | 6 | 36 | 11 | 19 | -11 | 6 | 12 | Nc1ccc(Nc2ncnc3sc4c(c23)CCCC4)cc1 [Compound 8, N-(5,6,7,8-Tetrahydro-benzo[4,5]thieno[2,3-d]pyrimidin-4-yl)-benzene-1,4-diamine] | inhibition at 10 µM (Jnk1a1): 20% |
| -2 | -6 | 7 | 2 | -6 | 208.6 °C | -10 | 66 | 0 | -14 | 0 | 3 | -3 | -2 | 3 | -6 | -20 | 5 | 2 | -10 | Clc1cccc(Nc2nc(C3CC3)nc3sc4c(c23)CCCC4)c1 [Compound 9, (3-Chloro-phenyl)-(2-cyclopropyl-5,6,7,8-tetrahydro-benzo[4,5]thieno[2,3-d]pyrimidin-4-yl)-amine] | inhibition at 10 µM (Jnk1a1): -6% |
| 10 | -12 | 18 | 9 | -8 | 239.7 °C | 0 | 23 | 6 | 3 | 3 | 3 | 4 | -5 | 2 | -3 | -2 | 6 | -12 | -11 | Oc1cccc(Nc2nc(C3CC3)nc3sc4c(c23)CCCC4)c1 [Compound 10, 3-(2-Cyclopropyl-5,6,7,8-tetrahydro-benzo[4,5]thieno[2,3-d]pyrimidin-4-ylamino)-Phenol] | inhibition at 10 µM (Jnk1a1): -12% |
